Measured values reported in patent US20100297256A1, “METHODS AND COMPOSITIONS FOR INHIBITING INTEGRINS USING TELLURIUM-CONTAINING COMPOUNDS” (priority 2007, published 2010).

Columns and labels:
[1] = test system: leukemic cells from AML patients; experiment: Sensitization of leukemic cells from AML patients to chemotherapy; type: cell-based, human
Experimental: (§1) 2×10^4 per 200 μl cells were seeded in 96-microwell flat bottom plates. After 24 hours, the tested compound(s) (e.g., AS101, ARA-C, DTNB, anti-VLA-4 antibody) was added, and the cells were incubated overnight with the tested compound(s). The XTT solution was then added and the cells were incubated for 4 hours at 37° C. Cell viability was than evaluated by measuring absorbance at 450 nm using a Microplate Spectrophotometer (Spectra MAX Plus, Molecular Devices).
Bone marrow samples from patients diagnosed, with AML, but not yet treated, were obtained and grown in vitro. The leukemic cells obtained therefrom were tested for levels of VLA-4 and VLA-5 via fluorescence based cytometry, using FITC (fluorescein isothiocyanate)-conjugated anti-VLA-4 and anti-VLA-5 antibodies, using standard procedures. The cells were grown on both fibronectin and BSA, and the effect of AS101 on chemotherapy resistance was measured.

U937 cells [2] = experiment: Fluorescence-based flow cytometry analysis of cell death; set-up: species or system human; conditions: agent alone
Excerpt: Fluorescence-based flow cytometry was used to measure the effect of tellurium-containing compounds on chemotherapy-induced cell death. Accumulation of cells in the sub-G1 fraction, increased proportion of annexin V-positive and propidium iodide-positive cells and increased caspase activity were each used as indicators of increased cell death, using standard procedures.

U937 cells [3] = experiment: AML chemotherapy resistance assay (XTT cell viability), U937; type: cell-based, human; conditions: for resistance of cells to the agent on fibronectin-coated plates in comparison with VCAM-1- and BSA-coated plates: U937
Experimental: (§2) Cell viability was determined using a cell proliferation kit (Roche), which colors viable cells using the tetrazolium salt XTT.
as §1
The role of VLA protein in fibronectin-induced resistance to chemotherapy was investigated by performing a chemotherapy resistance assay, as described hereinabove, with anti-VLA-4 and anti-VLA-5 antibodies. U937 cells were grown in fibronectin- and BSA-coated plates. Antibodies were added at a concentration of 1 μg/ml.

HL-60 cells = experiment: AML chemotherapy resistance assay (XTT cell viability), HL-60; type: cell-based, human; conditions: HL-60
Experimental: as §2, §1

Bcl2 = experiment: Western blot analysis of Bcl2; type: cell-based, human; conditions: ARA-C alone
Excerpt: The expression of the survival factor Bcl2 was examined via Western blot analysis in U937 cells treated with the chemotherapeutic agent ARA-C.

leukemic cells = experiment: Chemotherapy resistance assay with DTNB, leukemic cells; type: cell-based
Experimental: as §1
The role of free thiols in VLA-4/fibronectin-induced resistance to chemotherapy was therefore investigated by performing a chemotherapy resistance assay, as described hereinabove, with the membrane-impermeable thiol blocker DTNB (5 mM).

Compound: Nc1ccn([C@@H]2O[C@H](CO)[C@@H](O)[C@@H]2O)c(=O)n1 [ARA-C, cytosine arabinoside, reference compound]
- viability of cells exposed to ARA-C ([1]; 4 AML patients with low VLA-4 levels, on fibronectin and BSA): decreased effectively
- resistance of cells to ARA-C ([1]; 8 AML patients with high VLA-4 levels, on fibronectin): relatively resistant to ARA-C
- viability of cells exposed to ARA-C ([1]; Patient A, low VLA-4, on fibronectin and BSA): decreased effectively
- resistance of cells to ARA-C ([1]; Patient B, high VLA-4, on fibronectin): relatively resistant to ARA-C
- percentage of annexin V-positive and propidium iodide-positive cells (U937 cells [2]; U937 on BSA): large percentage
- percentage of cells in the sub-G1 fraction (U937 cells [2]; U937 on BSA): large percentage
- percentage of annexin V-positive and propidium iodide-positive cells (U937 cells [2]; U937 on fibronectin): slight increase
- percentage of cells in the sub-G1 fraction (U937 cells [2]; U937 on fibronectin): slight increase
- percentage of cells with high caspase-3 activity (U937 cells [2]; U937 on fibronectin): little or no effect
- resistance of cells to the agent on fibronectin-coated plates in comparison with VCAM-1- and BSA-coated plates (U937 cells [3]): more resistant
- resistance of cells to the agent on fibronectin-coated plates in comparison with VCAM-1- and BSA-coated plates (HL-60 cells): more resistant
- expression of Bcl2 (Bcl2; U937 on BSA): reduced expression of Bcl2 considerably
- expression of Bcl2 (Bcl2; U937 on fibronectin): did not decrease expression of Bcl2

Compound: COc1cccc2c1C(=O)c1c(O)c3c(c(O)c1C2=O)C[C@@](O)(C(C)=O)C[C@@H]3O[C@H]1C[C@H](N)[C@H](O)[C@H](C)O1 [daunorubicin, reference compound]
- resistance of cells to the agent on fibronectin-coated plates in comparison with VCAM-1- and BSA-coated plates (U937 cells [3]): more resistant
- resistance of cells to the agent on fibronectin-coated plates in comparison with VCAM-1- and BSA-coated plates (HL-60 cells): more resistant

Compound: O=C(O)c1cc(SSc2ccc([N+](=O)[O-])c(C(=O)O)c2)ccc1[N+](=O)[O-] [DTNB, 5,5′-dithiobis-(2-nitrobenzoic acid)]
- effect on viability of cells exposed to ARA-C, alone or in combination ([1]; low VLA-4 leukemic cells, fibronectin-coated plates): no effect either alone or in combination
- effect on viability of cells exposed to ARA-C, alone or in combination (U937 cells [3]; U937 on BSA): no effect either alone or in combination
- sensitization to ARA-C-induced cell death (leukemic cells; 5 mM DTNB, fibronectin-coated plates): sensitizes leukemic cells grown in fibronectin-coated plates to ARA-C-induced cell death
- sensitization to ARA-C-induced cell death (leukemic cells; DTNB, BSA-coated plates): no effect
